Experimental data taken from patent US20250179078A1, “INHIBITORS OF NLRP3” (PTC THERAPEUTICS, INC., priority 2022, published 2025).

Molecular target: T1, NLRP3 (Homo sapiens, UniProt Q96P20)
T1 construct: host or cells: THP-1 cells differentiated with PMA
Assay: IL-1β Secretion Assay (NLRP3-dependent IL1β secretion in THP1 cells)
Assay type: cell-based
Conditions: PMA-differentiated THP-1 cells; compounds incubated 20 h; 2.5 μM Nigericin 3 h; HTRF IL-1β readout; read-out: IC50 IL-1β Inhibition
In short: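 THP-1 cells differentiated with 100 ng/mL PMA for 24 h, then given compound (7-point 3-fold series, 1:200 from DMSO) for 20 h in RPMI+5% FBS. NLRP3 activated with 2.5 μM nigericin for 3 h; secreted IL-1β measured by HTRF; IC50 from logistic fit of % inhibition.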

T1 sequence (Q96P20 whole entry): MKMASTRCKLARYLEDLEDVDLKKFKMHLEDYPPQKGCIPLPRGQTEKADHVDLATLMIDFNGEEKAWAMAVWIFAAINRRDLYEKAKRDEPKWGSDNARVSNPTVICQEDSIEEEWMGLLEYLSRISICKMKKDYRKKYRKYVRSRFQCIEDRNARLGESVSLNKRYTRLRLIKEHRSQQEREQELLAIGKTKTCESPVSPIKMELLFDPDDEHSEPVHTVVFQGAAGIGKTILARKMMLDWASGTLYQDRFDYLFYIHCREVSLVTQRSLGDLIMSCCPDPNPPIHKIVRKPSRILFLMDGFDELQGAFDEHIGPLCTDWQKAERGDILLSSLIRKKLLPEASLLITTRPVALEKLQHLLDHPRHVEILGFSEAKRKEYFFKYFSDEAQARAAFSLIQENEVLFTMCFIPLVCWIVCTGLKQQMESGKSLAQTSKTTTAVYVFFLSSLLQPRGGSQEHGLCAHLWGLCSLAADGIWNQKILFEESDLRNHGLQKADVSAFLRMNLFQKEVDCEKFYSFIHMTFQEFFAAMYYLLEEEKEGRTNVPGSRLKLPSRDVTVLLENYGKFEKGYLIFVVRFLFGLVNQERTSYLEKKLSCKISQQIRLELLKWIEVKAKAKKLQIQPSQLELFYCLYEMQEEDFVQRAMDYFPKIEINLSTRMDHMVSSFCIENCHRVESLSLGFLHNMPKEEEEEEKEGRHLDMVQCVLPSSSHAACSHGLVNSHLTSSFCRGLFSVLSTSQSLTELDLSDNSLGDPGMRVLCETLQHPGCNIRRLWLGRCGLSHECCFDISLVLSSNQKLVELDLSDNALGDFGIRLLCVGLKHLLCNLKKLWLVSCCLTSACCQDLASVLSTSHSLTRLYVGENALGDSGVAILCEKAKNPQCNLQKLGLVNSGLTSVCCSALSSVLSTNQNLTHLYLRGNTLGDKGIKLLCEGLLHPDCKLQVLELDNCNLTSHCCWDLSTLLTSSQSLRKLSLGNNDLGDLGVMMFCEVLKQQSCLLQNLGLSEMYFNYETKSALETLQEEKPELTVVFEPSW

Compound | IC50
Cc1cc2c(-c3ccc(C4CC4)cc3OC(F)F)nnc(N[C@@H]3CCCN(C)C3)n2n1 [Compound 360, 4-[4-cyclopropyl-2-(difluoromethoxy)phenyl]-2-methyl-N-[(3R)-1-methylpiperidin-3-yl]pyrazolo[1,5-d][1,2,4]triazin-7-amine] | < 1 nM
Cc1ccc(-c2nnc(N[C@@H]3CCCN(C)C3)n3nc(C)cc23)c(OC(F)F)c1 [Compound 361, 4-[2-(difluoromethoxy)-4-methylphenyl]-2-methyl-N-[(3R)-1-methylpiperidin-3-yl]pyrazolo[1,5-d][1,2,4]triazin-7-amine] | 1 to 10 nM
Cc1cc2c(-c3ccc(Cl)cc3C(F)F)nnc(N[C@@H]3CCCN(C)C3)n2n1 [Compound 362, 4-[4-chloro-2-(difluoromethyl)phenyl]-2-methyl-N-[(3R)-1-methylpiperidin-3-yl]pyrazolo[1,5-d][1,2,4]triazin-7-amine] | 10 to 100 nM
Cc1cc2c(-c3ccc(C4CC4)cc3C(F)F)nnc(N[C@@H]3CCCN(C)C3)n2n1 [Compound 363, 4-[4-cyclopropyl-2-(difluoromethyl)phenyl]-2-methyl-N-[(3R)-1-methylpiperidin-3-yl]pyrazolo[1,5-d][1,2,4]triazin-7-amine] | 1 to 10 nM
Cc1ccc(-c2nnc(N[C@@H]3CCCN(C)C3)n3nc(C)cc23)c(C(F)F)c1 [Compound 364, 4-[2-(difluoromethyl)-4-methylphenyl]-2-methyl-N-[(3R)-1-methylpiperidin-3-yl]pyrazolo[1,5-d][1,2,4]triazin-7-amine] | 10 to 100 nM
CCN1CCC[C@@H](Nc2nnc(-c3ccc(C(F)(F)F)cc3OC(F)(F)F)c3cc(C)nn23)C1 [Compound 365, N-[(3R)-1-ethylpiperidin-3-yl]-2-methyl-4-[2-(trifluoromethoxy)-4-(trifluoromethyl)phenyl]pyrazolo[1,5-d][1,2,4]triazin-7-amine] | 1 to 10 nM
CCN1CCC[C@@H](Nc2nnc(-c3ccc(SC)cc3OC(F)(F)F)c3cc(C)nn23)C1 [Compound 366, N-[(3R)-1-ethylpiperidin-3-yl]-2-methyl-4-[4-(methylsulfanyl)-2-(trifluoromethoxy)phenyl]pyrazolo[1,5-d][1,2,4]triazin-7-amine] | 1 to 10 nM
CCN1CCC[C@@H](Nc2nnc(-c3ccc(C)cc3SC)c3cc(C)nn23)C1 [Compound 367, N-[(3R)-1-ethylpiperidin-3-yl]-2-methyl-4-[4-methyl-2-(methylsulfanyl)phenyl]pyrazolo[1,5-d][1,2,4]triazin-7-amine] | 1 to 10 nM
CCN1CCC[C@@H](Nc2nnc(-c3ccc(C)cc3S(C)(=O)=O)c3cc(C)nn23)C1 [Compound 368, N-[(3R)-1-ethylpiperidin-3-yl]-4-[2-(methanesulfonyl)-4-methylphenyl]-2-methylpyrazolo[1,5-d][1,2,4]triazin-7-amine] | 10 to 100 nM
CCN1CCC[C@@H](Nc2nnc(-c3ccc(S(C)(=O)=O)cc3OC(F)(F)F)c3cc(C)nn23)C1 [Compound 369, N-[(3R)-1-ethylpiperidin-3-yl]-4-[4-(methanesulfonyl)-2-(trifluoromethoxy)phenyl]-2-methylpyrazolo[1,5-d][1,2,4]triazin-7-amine] | 10 to 100 nM
CCN1CCC[C@@H](Nc2nnc(-c3ccc(OC)c(OC)c3OC)c3cc(C)nn23)C1 [Compound 370, N-[(3R)-1-ethylpiperidin-3-yl]-2-methyl-4-(2,3,4-trimethoxyphenyl)pyrazolo[1,5-d][1,2,4]triazin-7-amine] | 10 to 100 nM
CCN1CCC[C@@H](Nc2nnc(-c3ccc(OC)cc3OC(F)(F)F)c3cc(C)nn23)C1 [Compound 371, N-[(3R)-1-ethylpiperidin-3-yl]-4-[4-methoxy-2-(trifluoromethoxy)phenyl]-2-methylpyrazolo[1,5-d][1,2,4]triazin-7-amine] | 1 to 10 nM
CCN1CCC[C@@H](Nc2nnc(-c3ccc(C(F)(F)F)cc3C(N)=O)c3cc(C)nn23)C1 [Compound 372, 2-(7-{[(3R)-1-ethylpiperidin-3-yl]amino}-2-methylpyrazolo[1,5-d][1,2,4]triazin-4-yl)-5-(trifluoromethyl)benzamide] | 10 to 100 nM
CCN1CCC[C@@H](Nc2nnc(-c3ccc(OC)cc3C(F)(F)F)c3cc(C)nn23)C1 [Compound 373, N-[(3R)-1-ethylpiperidin-3-yl]-4-[4-methoxy-2-(trifluoromethyl)phenyl]-2-methylpyrazolo[1,5-d][1,2,4]triazin-7-amine] | < 1 nM
CCN1CCC[C@@H](Nc2nnc(-c3ccc(OC)cc3Cl)c3cc(C)nn23)C1 [Compound 374, 4-(2-chloro-4-methoxyphenyl)-N-[(3R)-1-ethylpiperidin-3-yl]-2-methylpyrazolo[1,5-d][1,2,4]triazin-7-amine] | 1 to 10 nM
CCN1CCC[C@@H](Nc2nnc(-c3ccc(C(F)(F)F)cc3Cl)c3cc(C)nn23)C1 [Compound 375, 4-[2-chloro-4-(trifluoromethyl)phenyl]-N-[(3R)-1-ethylpiperidin-3-yl]-2-methylpyrazolo[1,5-d][1,2,4]triazin-7-amine] | 1 to 10 nM
CCN1CCC[C@@H](Nc2nnc(-c3ccc(Cl)cc3Cl)c3cc(C)nn23)C1 [Compound 376, 4-(2,4-dichlorophenyl)-N-[(3R)-1-ethylpiperidin-3-yl]-2-methylpyrazolo[1,5-d][1,2,4]triazin-7-amine] | 1 to 10 nM
CCN1CCC[C@@H](Nc2nnc(-c3ccc(Cl)cc3)c3cc(C)nn23)C1 [Compound 377, 4-(4-chlorophenyl)-N-[(3R)-1-ethylpiperidin-3-yl]-2-methylpyrazolo[1,5-d][1,2,4]triazin-7-amine] | 1 to 10 nM
CCN1CCC[C@@H](Nc2nnc(-c3ccc(C#N)cc3OC(F)F)c3cc(C)nn23)C1 [Compound 378, 3-(difluoromethoxy)-4-(7-{[(3R)-1-ethylpiperidin-3-yl]amino}-2-methylpyrazolo[1,5-d][1,2,4]triazin-4-yl)benzonitrile] | 1 to 10 nM
CCN1CCC[C@@H](Nc2nnc(-c3ccc(OC)cc3C3CC3)c3cc(C)nn23)C1 [Compound 379, 4-(2-cyclopropyl-4-methoxyphenyl)-N-[(3R)-1-ethylpiperidin-3-yl]-2-methylpyrazolo[1,5-d][1,2,4]triazin-7-amine] | 1 to 10 nM
Cc1cc2c(-c3ccc(C(F)(F)F)cc3OC(F)F)nnc(N[C@H]3C[C@@](C)(O)C3)n2n1 [Compound 380, (1s,3s)-3-({4-[2-(difluoromethoxy)-4-(trifluoromethyl)phenyl]-2-methylpyrazolo[1,5-d][1,2,4]triazin-7-yl}amino)-1-methylcyclobutan-1-ol] | 1 to 10 nM
Cc1cc2c(-c3ccc(C(F)(F)F)cc3OC(F)F)nnc(N[C@@H]3CCCC[C@H]3O)n2n1 [Compound 381, (1R,2R)-2-({4-[2-(difluoromethoxy)-4-(trifluoromethyl)phenyl]-2-methylpyrazolo[1,5-d][1,2,4]triazin-7-yl}amino)cyclohexan-1-ol] | 10 to 100 nM
Cc1cc2c(-c3ccc(C(F)(F)F)cc3OC(F)(F)F)nnc(N[C@@H]3CCCC[C@H]3O)n2n1 [Compound 382, (1R,2R)-2-({2-methyl-4-[2-(trifluoromethoxy)-4-(trifluoromethyl)phenyl]pyrazolo[1,5-d][1,2,4]triazin-7-yl}amino)cyclohexan-1-ol] | 10 to 100 nM
